According to US20060264371A1, “Treatment” (Proximagen Ltd., priority 2005, published 2006):
Entries after “also recorded” stand apart in the source; their conditions may differ.

Columns and labels:
Assay type in all cases: cell-based, rat
[1] = test system: TH positive cells in primary ventral mesencephalic cell cultures; test: MPP+ dose response on TH positive cell number in primary ventral mesencephalic cell cultures; conditions: 24 hrs exposure, 0.1-10 μM MPP+, n=3; read-out: EC50, TH positive (dopaminergic) cell death
Protocol: (§1) Primary ventral mesencephalic cell cultures: Primary cell cultures were prepared by dissecting out the ventral mesencephalon from E14 rat foetuses. The dissected tissue was pooled and incubated with 0.1% Trypsin solution. This solution was then removed and replaced with Dulbecco's modified Eagles medium (DMEM) containing 10% foetal bovine serum (FBS) and 0.25% penicillin-streptomycin-neomycin (PSN), and the tissue centrifuged for 1 minute at 2000 rpm at room temperature. The supernatant was then removed, fresh medium was added and the tissue mechanically dissociated using increasing fine bore fire-polished Pasteur pipettes. Cell density was assessed using a haematocytometer and cells were plated in culture medium containing 10% FBS and 0.25% PSN at a density of 1-1.5×10^5 on sterile coverslips coated with 0.01% poly-D-lysine. After 4 days the culture medium was removed and replaced with fresh serum free DMEM prior to treatment with MPP+ or OPN. […]
MPP+ dose response: MPP+ was dissolved in sterile PBS and the primary cell cultures were incubated for 24 hrs with one of the following concentrations of MPP+ : 0.1, 0.5, 1, 2, 5, 10 μM MPP+ or vehicle (PBS). […] An EC50 was calculated (3.076±0.56) and a high (10 μM) or low (2 μM) MPP+ concentration was used to investigate the role of OPN in dopaminergic cell survival. […]

[2] = test system: TH positive cells in primary ventral mesencephalic cultures; test: Survival of TH positive cells in primary ventral mesencephalic cultures without MPP+ treatment; conditions: 24 hrs incubation, no toxin; listed as OPN
Protocol: as §1
(§2) Tyrosine hydroxylase (TH) immunohistochemistry: The culture medium was removed from the cells and the coverslips were fixed in 4% paraformaldehyde prior to peroxidase detection of TH using the ABC immunohistochemical method. Coverslips were mounted and examined using a Zeiss Axiophot microscope at a 50× magnification and the number of TH positive cells on each coverslip was manually counted in four fields chosen at random (total area: 8 mm^2).

[3] = test system: TH positive cells in primary ventral mesencephalic cultures; test: Survival of TH positive cells in primary ventral mesencephalic cultures with MPP+ treatment; conditions: for concentration of maximal efficacy in increasing TH positive cell survival: lowest concentration used; for effect on survival/death of TH positive cells: 24 hrs pretreatment
Protocol: Primary ventral mesencephalic cell cultures: Primary cell cultures were prepared by dissecting out the ventral mesencephalon from E14 rat foetuses. The dissected tissue was pooled and incubated with 0.1% Trypsin solution. This solution was then removed and replaced with Dulbecco's modified Eagles medium (DMEM) containing 10% foetal bovine serum (FBS) and 0.25% penicillin-streptomycin-neomycin (PSN), and the tissue centrifuged for 1 minute at 2000 rpm at room temperature. The supernatant was then removed, fresh medium was added and the tissue mechanically dissociated using increasing fine bore fire-polished Pasteur pipettes. Cell density was assessed using a haematocytometer and cells were plated in culture medium containing 10% FBS and 0.25% PSN at a density of 1-1.5×10^5 on sterile coverslips coated with 0.01% poly-D-lysine. After 4 days the culture medium was removed and replaced with fresh serum free DMEM prior to treatment with MPP+ or OPN. Each treatment was done in triplicate per experiment and each series of experiments was repeated a further 2 times to give a final n=3.
Manipulation of the OPN system: Cultures were incubated with one of the following treatments for 24 hrs prior to MPP+ administration (either 10 μM or 2 μM MPP+): OPN protein (1, 5, 10, 25, 50 & 100 ng/ml), anti-OPN antibody (26.5, 53, 265, 530 ng/ml and 1.325, 2.65 μg/ml), anti-αv or anti-β3 integrin receptor subunit antibody (0.02, 0.04, 0.2, 0.4, 1 & 2 μg/ml). Control groups received no MPP+ treatment.
as §2

Molecule | EC50 [1] [µM] | effect on viability of TH positive cells [2] | concentration of maximal efficacy in increasing TH positive cell survival ([3]; 2 μM MPP+) [ng/mL] | concentration of maximal efficacy in increasing TH positive cell survival ([3]; 10 μM MPP+) [ng/mL] | effect on survival/death of TH positive cells ([3]; then 2 μM MPP+ for 24 hrs) | effect on survival/death of TH positive cells ([3]; then 2 μM MPP+ for 24 hrs, listed as OPN) | effect on survival/death of TH positive cells ([3]; then 10 μM MPP+ for 24 hrs) | effect on survival/death of TH positive cells ([3]; then 10 μM MPP+ for 24 hrs, listed as OPN)
C[n+]1ccc(-c2ccccc2)cc1 [MPP+] | 3.08 ± 0.56 |  |  |  |  |  |  | 
OPN protein fragment: 15 amino acid fragment of rat osteopontin (SEQ ID NO: 8) containing the RGD αvβ3 integrin binding site (TVDVPDGRGDSLAYG; listed as Rattus norvegicus) |  | not found to affect the viability; also recorded: no effect | 1 | 1 | almost completely protected dopaminergic cells | increased TH cell survival | almost completely protected dopaminergic cells | increased survival of TH positive cells
